The results in this text go back to PubChem BioAssay AID2384 (Southern Research Specialized Biocontainment Screening …, 2010).

SMILES strings stand for the structures.

This assay has as its system S. typhi GFP reporter counter-screen, fluorescence, 4 h. Kind of assay: inhibitors in S. typhi counter-screen strain, dose response, counter-screen for PhoP regulon inhibitor project, fluorescence, 4 h (AID 2384).
As to `Cc1cc(C)nc(/N=C(\N)Nc2ccc(SC(F)F)cc2)n1`, the IC50 (usually the concentration needed to halve the response being measured) is 51.3 µM.

As to `Cc1cccn2c(=O)c(C=O)c(Cl)nc12`, the IC50 was 145 µM.

In the case of `CCCCCCCCCCCCCCCC[n+]1ccc(/C=N/O)cc1`, the IC50 was 36.9 µM.

In the case of `O=C(/C=C/c1ccccc1Cl)c1ccccc(=O)c1O`, the IC50 is 28 µM.

Consider `Clc1ccc(CNCc2cccs2)cc1Cl`, for which the IC50 was 45.4 µM.

Turning to `Cc1ccc(C(=O)N/N=C\c2sccc2C)cn1`, the IC50 is 136 µM.

As for `NC1=NC[C@H](c2ccccc2)N1CCCCC1CCCCC1`, the IC50 was 28.9 µM.

For the molecule `CCOc1cc(Br)cc(/C=N/NC(=O)c2cccnc2)c1O`, the IC50 was 126 µM.

As for `Nc1ncn([C@@H]2O[C@H](CO)[C@@H](O)[C@H]2O)c(=O)n1`, the IC50 was 46.2 µM.

`Oc1[nH]c2ccc(Br)cc2c1N=NC(=S)N1CCOCC1`: the IC50 was 33.1 µM.

Consider `COc1cccc(F)c1C(C[N+](=O)[O-])c1c(N)n(C)c(=O)n(C)c1=O` (stereo unspecified), for which the IC50 was 89.2 µM.

For `O=C(CCN1CCN(c2ccccc2)CC1)c1ccc(Br)cc1`, the IC50 was 70.1 µM.

For `O=C(C[n+]1cccc(CNC(=O)c2ccc(OC(F)F)cc2)c1)Nc1ccc(SC(F)F)cc1`, the 50% inhibitory concentration (IC50) was 78.6 µM.

Turning to `CCCCc1ccc(N/C(N)=N/c2nc(C)cc(C)n2)cc1`, the IC50 was 52.3 µM.

In the case of `C=C1c2cccc(O)c2C(O)=C2C(=O)[C@]3(O)C(O)=C(C(N)=O)C(=O)[C@@H](N(C)C)[C@@H]3[C@@H](O)[C@H]12`, the IC50 was under 0.23 µM.

Take `O=C(NC(=S)NNC(=O)c1cnccn1)c1ccc(F)cc1`: the IC50 is 24.4 µM.

On to `CN(C)CCCNc1cc(C(C)(C)C)nc2c(-c3ccc(Cl)cc3)cnn12`, for which the IC50 is 18.7 µM.

With `CN(C)CC/C=C1\c2ccc(F)cc2Sc2cc(F)c(Cl)cc21`, the IC50 was 19.5 µM.

Regarding `CCC(C)N1CCC2(CC1)N=c1c(c3c4c5c(C)c(O)c3c(O)c1=NC(=O)C(C)=CC=C[C@H](C)[C@H](O)[C@@H](C)[C@@H](O)[C@@H](C)[C@H](OC(C)=O)[C@H](C)[C@@H](OC)C=CO[C@@](C)(O5)C4=O)N2` (stereo partly specified), the IC50 is 5.31 µM.

On to `Oc1ccc(CN2CCN(c3ccccc3)CC2)c2cccnc12`, for which the IC50 is 99.6 µM.

Take `CCN1CCN(C(=O)c2cc3cc(Cl)ccc3[nH]2)CC1`: the IC50 is 30.4 µM.

Consider `O=S1(=O)Nc2c(ccc3cccnc23)-c2ccccc21`, for which the IC50 is 3.32 µM.

Regarding `CC(C)N1CSC(=S)N(Cc2ccccc2)C1`, the IC50 is 49.4 µM.

For the molecule `O=C(/C=C/c1ccco1)NC(=S)NNC(=O)c1ccco1`, the IC50 is 90.8 µM.

For the molecule `CN(C)CCCOC(=O)c1sc2ccccc2c1Cl`, the IC50 is 68.6 µM.

On to `O=C(/C=C/c1ccc(F)cc1)NC(=S)NNC(=O)c1cnccn1`, for which the IC50 is 19 µM.

As for `C#CCOCCOCCOCCNc1nc(N2CCN(C(=O)CCCCCCCCCCNC(=O)[C@H]([C@@H](C)CC)n3cc(CCCCCN)nn3)CC2)nc(N2CCN(C(=O)CCCCCCCCCCNC(=O)[C@H]([C@@H](C)CC)n3cc(CCCCN=C(N)N)nn3)CC2)n1`, the half-maximal inhibitory concentration (IC50) was 25 µM.

For `C=CCNc1ncnc2c1[nH]c1ccc(C)cc12`, the IC50 is 111 µM.

Turning to `CN(C)CCCNc1c2ccccc2nc2ccccc12`, the IC50 was 40.7 µM.

`CN(Cc1ccccc1)CC(O)COc1ccc(CNCc2ccc(Cl)s2)cc1` (stereo unspecified): the IC50 was 30.4 µM.

`CCCCCC[N+](C)(C)CC/C=C1/c2ccccc2Sc2ccc(Cl)cc21`: the IC50 was 26.2 µM.

Turning to `NC[C@@H]1O[C@H](C23CC4CC(CC(C4)C2)C3)Cc2c1ccc(O)c2O`, the IC50 was 27 µM.

Regarding `NC1=NC2(CCCCC2)N=C(Nc2ccc(Br)cc2)N1`, the IC50 was 35.9 µM.

For `CC[C@H]1OC(=O)[C@H](C)[C@@H](O[C@H]2C[C@@](C)(OC)[C@@H](O)[C@H](C)O2)[C@H](C)[C@@H](O[C@@H]2O[C@H](C)C[C@H](N(C)C)[C@H]2O)[C@](C)(OC)C[C@@H](C)C(=O)[C@H](C)[C@@H](O)[C@]1(C)O`, the IC50 is 29.7 µM.

On to `O=C(Nc1ccc([N+](=O)[O-])cc1Cl)c1cc(Cl)ccc1O`, for which the half-inhibitory concentration (IC50) was 19.7 µM.

With `NC1=NC[C@H](c2ccccc2)N1CCc1cc(C(F)(F)F)cc(C(F)(F)F)c1`, the IC50 was 31.1 µM.
